From patent publication US8796244B2, “Imidazopyridine derivatives as inhibitors of receptor tyrosine kinases” (Astex Therapeutics Ltd, priority 2008, dated 2014)
pIC50: −log10 of the molar value. Structures can show the parent of a compound that is named as a salt. Where two headings read alike, the source gives them in different places.

Legend:
[1] = system: parental wild-type Ba/F3 cells; test: Ba/F3 (WT) cell proliferation assay (Alamar Blue); assay type: cell-based; conditions: Mus musculus; for IC50: BaF3, 72 h, read-out: BaF3 WT prolif (μM); for pIC50: BaF3, 72 hours, Alamar Blue, read-out: BaF3 WT prolif; for inhibition at 10 µM / inhibition at 3 µM: BaF3, read-out: BaF3 WT prolif, % inhibition
[2] = system: LP-1 cell line (FGF-1/Heparin induced pERK); test: Cell-based pERK ELISA, LP-1 cells; conditions: Homo sapiens; for IC50: LP-1, read-out: LP-1 pERK ELISA (μM)
[3] = LP-1, read-out: LP-1 pERK ELISA, % inhibition

Row | SMILES | IC50 [2] | pIC50 [1] | inhibition at 10 µM [1] | further results
1 | CC(O)C#Cc1ccn2c(-c3cccc(NC(=O)NCC(F)(F)F)c3)cnc2c1 (centres unmarked) [Example 18, 1-{3-[7-(3-Hydroxybut-1-ynyl)imidazo[1,2-a]pyridin-3-yl]phenyl}-3-(2,2,2-trifluoroethyl)urea formate] | 0.095 µM |  |  | IC50 [1]: 1.4 µM
2 | NCCNc1nc(-c2ccn3c(-c4cccc(NC(=O)NCC(F)(F)F)c4)cnc3c2)ncc1F [Example 182] | 2.5 µM | 5.00 |  | 
3 | O=C(NCC(F)(F)F)Nc1cccc(-c2cnc3cc(-c4cnn(C5CNC5)c4)ccn23)c1 [Example 37, 1-{3-[7-(1-Azetidin-3-yl-1H-pyrazol-4-yl)-imidazo[1,2-a]pyridin-3-yl]phenyl}-3-(2,2,2-trifluoroethyl)urea] | 0.29 µM |  | 3.3% | 
4 | Cc1ccc(-c2ccn3c(-c4cncc(NC(=O)NCC(F)(F)F)c4)cnc3c2)nn1 [Example 21, 1-{5-[7-(6-Methylpyridazin-yl)imidazo[1,2-a]pyridin-3-yl]pyridin-3-yl}-3-(2,2,2-trifluoroethyl)urea] | 0.41 µM |  | 0% | 
5 | Cn1cncc1C#Cc1ccn2c(-c3cccc(NC(=O)NC4CC4)c3)cnc2c1 [Compound 329] | 0.23 µM |  | 31% | 
6 | O=C(NCC(F)(F)F)Nc1cccc(-c2cnc3cc(C#CCO)ccn23)c1 [Example 26, 1-{3-[7-(3-Hydroxyprop-1-ynyl)imidazo[1,2-a]pyridin-3-yl]phenyl}-3-(2,2,2-trifluoroethyl)urea] | 0.27 µM | 6.11 |  | 
7 | O=C(NCC(F)(F)F)Nc1cccc(-c2cnc3cc(-c4ccc(=O)n(CCO)n4)ccn23)c1 [Example 126, 1-(3-{7-[1-(2-Hydroxy-ethyl)-6-oxo-1,6-dihydro-pyridazin-3-yl]-imidazol[1,2-a]pyridin-3-yl}-phenyl)-3-(2,2,2-trifluoro-ethyl)-urea] | 0.98 µM |  | 3.7% | 
8 | CN(C)c1ccc(-c2ccn3c(-c4cccc(NC(=O)NCC(F)(F)F)c4)cnc3c2)nn1 [Example 113, 1-{3-[7-(6-Dimethylamino-pyridazin-3-yl)-imidazo[1,2-a]pyridin-3-yl]-phenyl}-3-(2,2,2-trifluoro-ethyl)-urea formate] | 0.016 µM |  |  | IC50 [1]: 1.4 µM
9 | COc1ccnc(-c2ccn3c(-c4cccc(NC(=O)NCC(F)(F)F)c4)cnc3c2)n1 [Compound 336] | 0.074 µM | 6.34 |  | 
10 | CN(C)C1CCN(c2ccc(-c3ccn4c(-c5cccc(NC(=O)NCC(F)(F)F)c5)cnc4c3)nn2)CC1 [Example 36, 1-(3-{7-[6-(4-Dimethylaminopiperidin-1-yl)pyridazin-3-yl]imidazo[1,2-a]pyridin-3-yl}-phenyl)-3-(2,2,2-trifluoroethyl)urea hydrochloride.] | 0.065 µM |  | 0% | 
11 | CN1CCN(c2ccc(-c3ccn4c(-c5cccc(NC(=O)NCC(F)(F)F)c5)cnc4c3)nn2)CC1 [Example 12, 1-(3-{7-[6-(4-Methylpiperazin-1-yl)pyridazin-3-yl]imidazo[1,2-a]pyridin-3-yl}phenyl)-3-(2,2,2-trifluoroethyl)urea] | 0.041 µM | 5.43 |  | 
12 | O=C(NCC(F)(F)F)Nc1cccc(-c2cnc3cc(-c4nc5c(s4)CNCC5)ccn23)c1 [Example 53, 1-{3-[7-(4,5,6,7-Tetrahydro-thiazolo[5,4-c]pyridin-2-yl)-imidazo[1,2-a]pyridin-3-yl]-phenyl}-3-(2,2,2-trifluoroethyl)-urea formate] | 0.023 µM |  |  | IC50 [1]: 4.1 µM
13 | O=C(NCC(F)(F)F)Nc1cccc(-c2cnc3cc(-c4nnc(C(F)(F)F)s4)ccn23)c1 [Example 17, 1-(2,2,2-Trifluoroethyl)-3-{3-[7-(5-trifluoromethyl[1,3,4]thiadiazol-2-yl)-imidazo[1,2-a]pyridin-3-yl]phenyl}urea] | 0.044 µM | 7.25 |  | 
14 | O=C(NCC(F)(F)F)Nc1cccc(-c2cnc3cc(-c4ccc(F)cn4)ccn23)c1 [Example 96, 1-{3-[7-(5-Fluoro-pyridin-2-yl)-imidazo[1,2-a]pyridin-3-yl]-phenyl}-3-(2,2,2-trifluoro-ethyl)-urea bis-hydrochloride] | 0.0063 µM |  |  | IC50 [1]: 1.7 µM
15 | Cc1cnnc(-c2ccn3c(-c4cccc(NC(=O)NCC(F)(F)F)c4)cnc3c2)c1 [Example 137, 1-{3-[7-(5-Methyl-pyridazin-3-yl)-imidazo[1,2-a]pyridin-3-yl]-phenyl}-3-(2,2,2-trifluoro-ethyl)-urea] | 0.034 µM |  | 23% | 
16 | NC(=O)c1ccnc(-c2ccn3c(-c4cccc(NC(=O)NCC(F)(F)F)c4)cnc3c2)n1 [Example 185] | 0.14 µM |  |  | inhibition at 3 µM [1]: 0%

Row | SMILES | IC50 [2] | pIC50 [1] | inhibition at 10 µM [1] | further results
17 | O=C(NCC(F)(F)F)Nc1cccc(-c2cnc3cc(-c4ccnnc4)ccn23)c1 [Example 88, 1-[3-(7-Pyridazin-4-yl-imidazo[1,2-a]pyridin-3-yl)-phenyl]-3-(2,2,2-trifluoro-ethyl)-urea formate] |  |  | 0% | inhibition at 10 µM [2, 3]: 16%
18 | CN1CCC(Nc2ccc(-c3ccn4c(-c5cccc(NC(=O)NCC(F)(F)F)c5)cnc4c3)nn2)CC1 [Example 76, 1-(3-{7-[6-(1-Methyl-piperidin-4-ylamino)-pyridazin-3-yl]-imidazo[1,2-a]pyridin-3-yl}-phenyl)-3-(2,2,2-trifluoro-ethyl)-urea tri-hydrochloride] | 0.51 µM |  | 26% | 
19 | Cn1ccc(C#Cc2ccn3c(-c4cccc(NC(=O)NCC(F)(F)F)c4)cnc3c2)n1 [Example 86, 1-{3-[7-(1-Methyl-1H-pyrazol-3-ylethynyl)-imidazo[1,2-a]pyridin-3-yl]-phenyl}-3-(2,2,2-trifluoro-ethyl)-urea formate] | 0.04 µM |  |  | IC50 [1]: 1.9 µM
20 | O=C(NCC(F)(F)F)Nc1cccc(-c2cnc3cc(-c4cnn(C5CCNCC5)c4)ccn23)c1 [Example 4, 1-{3-[7-(1-Piperidin-4-yl-1H-pyrazol-4-yl)-imidazo[1,2-a]pyridin-3-yl]phenyl}-3-(2,2,2-trifluoroethyl)urea hydrochloride] | 0.077 µM |  | 51% | 
21 | O=C(NCC(F)(F)F)Nc1cccc(-c2cnc3cc(-c4cnn(C5CCNC5)c4)ccn23)c1 (centres unmarked) [Example 45, 1-{3-[7-(1-Pyrrolidin-3-yl-1H-pyrazol-4-yl)-imidazo[1,2-a]pyridin-3-yl]-phenyl}-3-(2,2,2-trifluoro-ethyl)-urea] | 0.35 µM |  | 0% | 
22 | CN1CC(n2cc(-c3ccn4c(-c5cccc(NC(=O)NCC(F)(F)F)c5)cnc4c3)cn2)C1 [Example 41, 1-(3-{7-[1-(1-Methyl-azetidin-3-yl)-1H-pyrazol-4-yl]-imidazo[1,2-a]pyridin-3-yl}-phenyl)-3-(2,2,2-trifluoro-ethyl)-urea formate] | 0.025 µM |  |  | IC50 [1]: 2.8 µM
23 | Nc1nc(-c2ccn3c(-c4cccc(NC(=O)NCC(F)(F)F)c4)cnc3c2)ncc1F [Example 102, 1-{3-[7-(4-Amino-5-fluoro-pyrimidin-2-yl)-imidazo[1,2-a]pyridin-3-yl]-phenyl}-3-(2,2,2-trifluoro-ethyl)-urea bis-hydrochloride] | 0.0939 µM |  |  | IC50 [1]: 2.3 µM
24 | CCOC(=O)C(C)(C)n1cc(-c2ccn3c(-c4cccc(NC(=O)NCC(F)(F)F)c4)cnc3c2)cn1 [Example 2, 2-Methyl-2-[4-(3-{3-[3-(2,2,2-trifluoroethyl)ureido]phenyl}imidazo [1,2-a]pyridin-7-yl)pyrazol-1-yl] propionic acid ethyl ester] |  |  | 12% | inhibition at 0.003 µM [2, 3]: 62%
25 | O=C(NCC(F)(F)F)Nc1cccc(-c2cnc3cc(-c4nnc(C5CCCO5)s4)ccn23)c1 (centres unmarked) [Example 1, 1-(3-{7-[5-(Tetrahydrofuran-2-yl)-[1,3,4]thiadiazol-2-yl]imidazo[1,2-a]pyridin-3-yl}-phenyl)-3-(2,2,2-trifluoroethyl)urea] | 0.0074 µM | 6.04 |  | 
26 | Cc1ncc(C#Cc2ccn3c(-c4cccc(NC(=O)NCC(F)(F)F)c4)cnc3c2)n1C [Example 64, 1-{3-[7-(2,3-Dimethyl-3H-imidazol-4-ylethynyl)-imidazo[1,2-a]pyridin-3-yl]-phenyl}-3-(2,2,2-trifluoro-ethyl)-urea] | 0.049 µM | 5.60 |  | 
27 | O=C(NCC(F)(F)F)Nc1cccc(-c2cnc3cc(/C=C/c4ccccn4)ccn23)c1 [Example 186] | 0.019 µM | 6.49 |  | 
28 | O=C(NCC(F)(F)F)Nc1cccc(-c2cnc3cc(-c4ccc(CCO)cc4)ccn23)c1 [Example 111, 1-(3-{7-[4-(2-Hydroxy-ethyl)-phenyl]-imidazo[1,2-a]pyridin-yl}-phenyl)-3-(2,2,2-trifluoro-ethyl)-urea formate] | 0.016 µM |  |  | IC50 [1]: 0.18 µM
29 | O=C(NCC(F)(F)F)Nc1cncc(-c2cnc3cc(C#CC4CC4)ccn23)c1 [Example 29, 1-[5-(7-Cyclopropylethynylimidazo[1,2-a]pyridin-3-yl)pyridin-3-yl]-3-(2,2,2-trifluoroethyl)urea] | 0.12 µM | 5.51 |  | 
30 | O=C(NCC(F)(F)F)Nc1cccc(-c2cnc3cc(-c4ccc(N5CCCC(O)C5)nn4)ccn23)c1 (centres unmarked) [Example 133, 1-(3-{7-[6-(3-Hydroxy-piperidin-1-yl)-pyridazin-3-yl]-imidazo[1,2-a]pyridin-3-yl}-phenyl)-3-(2,2,2-trifluoro-ethyl)-urea] | 0.0714 µM |  | 31% | inhibition at 3 µM [1]: 34%
31 | O=C(NCC(F)(F)F)Nc1cccc(-c2cnc3cc(-c4ncccn4)ccn23)c1 [Example 114, 1-{3-[7-(Pyrimidin-2-yl)-imidazo[1,2-a]pyridin-3-yl]-phenyl}-3-(2,2,2-trifluoro-ethyl)-urea hydrochloride] | 0.047 µM |  |  | IC50 [1]: 0.65 µM
32 | O=C(NCC(F)(F)F)Nc1cccc(-c2cnc3cc(-c4nc5c(s4)CCC5)ccn23)c1 [Example 8, 1-{3-[7-(5,6-Dihydro-4H-cyclopentathiazol-2-yl)imidazo[1,2-a]pyridin-3-yl]-phenyl}-3-(2,2,2-trifluoroethyl)urea] | 0.012 µM | 6.35 |  | 
